In US20250302728A1, “FRAGRANCE COMPOSITIONS AND PRODUCTS CONVEYING A POSITIVE MOOD” (SYMRISE AG, priority 2022, published 2025):

How the values were obtained:
subject's mood [1] = test: Actimood scoring (correlation of EmoChar and IRT values); assay type: in vivo, human
Description: (§1) 1. Sensorial and Emotional Evaluation of Fragrance Raw Materials Each fragrance was evaluated by 30 subjects. At each appointment, the subject discovered fragrances in one sequence of four fragrances and two sequences of three fragrances separated by a 10-minute break.
(§2) For each fragrance, the subject discovered each fragrance on a card strip for 10 seconds. Between each product, a rest-period of 2 minutes was carried out during which the subject smelt their own body odour by smelling their wrist and the subject drank a little bit of water as well.
Emochar™ is a system of emotional characterization, scoring 7 main emotional dimensions from 0 to 10: • Stimulation: focus, attention, and awakening. • Relaxation: serenity, relaxation and appeasing. • Sensual: arousing, sexy and erotic. • Pleasure: liking, “gourmand” and satisfaction. • Tenderness: gentleness and softness. • Joy: excitement, fun and enthusiasm. • Self-esteem: confidence and assurance
Actimood scores are based on a correlation of EmoChar™ and IRT values. The scores are classified on a scale from 0 (low impact on subject's mood) to 3 (high impact on subject's mood).
Each score is obtained according to an algorithm, mixing verbal and non-verbal responses of volunteers to a specific product, or stimulus in a given context. The algorithm was developed from extensive field data, and in accordance with scientific literature and validated biobehavioral patterns associated to various emotional states.

subject's mood [2] = test: Implicit response test (IRT); assay type: in vivo, human; design: scale not given here
Description: as §1
During those appointments, the subjects smelt the fragrances in a random way.
as §2
The evaluation is carried out in standardized lighting conditions and under a monitored temperature (temperature 21±1.5° C.).
Implicit response tests (IRTs) are a family of tests and assess the subjects' immediate, “gut instinct” responses the fragrance raw materials.
The alleged underlying processes are based on how neurosciences describe the way our brain processes information. Indeed, our brain processes information through two systems: System 2, which is slow and processes conscious information, and System 1, which is fast and processes non-conscious information.
The IRT tests are performed at a computer, where the following words appear on the computer screen: • Energizing • Relaxing • Attractive • Sensual • Joyful • Protective • Confident • Fresh • Well-being
The subject has to click on the screen with the computer mouse to indicate their accordance or not of the word with the tested fragrance. In addition, the times to click the button are recorded.

[3] = attractive mood (Table 11), scale 0 (low impact) to 3 (high impact)
[4] = energizing mood (Table 7), scale 0 (low impact) to 3 (high impact)
[5] = fresh mood (Table 12), scale 0 (low impact) to 3 (high impact)
[6] = joyful mood (Table 6), scale 0 (low impact) to 3 (high impact)
[7] = ingredients of the fragrance composition conveying a fresh mood (Table 1)
[8] = ingredients of the fragrance composition conveying an attractive mood (Table 2)
[9] = relaxing and sleep enhancing mood (Composition 1, Table 3), scale 0 (low impact on subject's mood) to 3 (high impact)
[10] = well-being mood (Table 10), scale 0 (low impact) to 3 (high impact)
[11] = self-confident mood (Table 9), scale 0 (low impact) to 3 (high impact)
[12] = relaxing mood (Composition 2, Table 4), scale 0 (low impact) to 3 (high impact)
[13] = sensual mood (Table 8), scale 0 (low impact) to 3 (high impact)
[14] = protective mood (Table 5), scale 0 (low impact) to 3 (high impact)

SMILES: C=CC(C)(O)CCC=C(C)CC (mixture of isomers) [ETHYL LINALOOL, (6E)-3,7-dimethylnona-1,6-dien-3-ol]
- Actimood score (subject's mood [1]; [3]): 2
- Actimood score (subject's mood [1]; [4]): 1
- Actimood score (subject's mood [1]; [5]): 3
- Actimood score (subject's mood [1]; [6]): 2
- IRT Score (subject's mood [2]; [7]): 1682
- IRT Score (subject's mood [2]; [8]): 565

SMILES: CCCCC[C@@H]1C(=O)CC[C@H]1CC(=O)OC (racemic) [HEDIONE, methyl-2-[RAC-(1S,2S)-3-oxo-2-pentyl-cyclopentyl]acetate]
- Actimood score (subject's mood [1]; [5]): 2
- Actimood score (subject's mood [1]; [6]): 0
- Actimood score (subject's mood [1]; [9]): 2
- Actimood score (subject's mood [1]; [10]): 0

SMILES: CC(C)C1CC=C(CCC=O)CC1 (single isomer, unassigned; (+)) [LILYBELLE ®, (+)-3-(4-Isopropylcyclohexen-1-yl)propanal]
- Actimood score (subject's mood [1]; [5]): 3
- Actimood score (subject's mood [1]; [10]): 0

SMILES: CC(C=O)Cc1ccc2c(c1)OCO2 (centres unmarked) [3-(1,3-benzodioxol-5-yl)-2-methyl-propanal]
- IRT Score (subject's mood [2]; [7]): 742

SMILES: CCCCCCCC1CCC(=O)O1 (centres unmarked) [ALDEHYDE C14 SO-CALLED, 5-heptyltetrahydrofuran-2-one]
- Actimood score (subject's mood [1]; [11]): 2

SMILES: COC(OC)C(C)(C)CC=C(C)C [AMAROCIT ®, 6,6-Dimethoxy-2,5,5-trimethylhex-2-ene]
- Actimood score (subject's mood [1]; [4]): 3
- Actimood score (subject's mood [1]; [5]): 3
- IRT Score (subject's mood [2]; [7]): 1763

SMILES: O=C1CCCCCCCC=CCCCCCCO1 [AMBRETTOLIDE HC SUPREME, Oxacycloheptadec-10-en-2-one]
- Actimood score (subject's mood [1]; [9]): 2

SMILES: CCCCCCC1OC(=O)CC1C (centres unmarked) [APRIFLOREN ®, 5-Hexyldihydro-4-methylfuran-2(3H)-one]
- Actimood score (subject's mood [1]; [6]): 2
- Actimood score (subject's mood [1]; [11]): 2

SMILES: O=C(OCc1ccccc1)c1ccccc1O [BENZYL SALICYLATE, benzyl 2-hydroxybenzoate]
- Actimood score (subject's mood [1]; [11]): 1

SMILES: CC(C)(C)c1ccc(CCC=O)cc1 [BOURGEONAL, 3-(4-tert-butylphenyl)propanal]
- Actimood score (subject's mood [1]; [3]): 3
- Actimood score (subject's mood [1]; [12]): 3
- Actimood score (subject's mood [1]; [11]): 2
- IRT Score (subject's mood [2]; [8]): 1045

SMILES: Cc1ccc2c(c1)OCC(=O)CO2 [CALONE, 7-methyl-1,5-benzodioxepin-3-one]
- Actimood score (subject's mood [1]; [4]): 3
- Actimood score (subject's mood [1]; [5]): 3
- Actimood score (subject's mood [1]; [6]): 3
- Actimood score (subject's mood [1]; [10]): 3
- IRT Score (subject's mood [2]; [7]): 2830

SMILES: C=C1CCC=C(C)CCC2C1CC2(C)C (centres unmarked) [CARYOPHYLLENE NAT. RECT., 4,11,11-trimethyl-8-methylene-bicyclo[7.2.0]undec-4-ene]
- Actimood score (subject's mood [1]; [12]): 3
- Actimood score (subject's mood [1]; [11]): 3

SMILES: CC(C)=CCC/C(C)=C/C=O [CITRAL FF, (2E)-3,7-Dimethylocta-2,6-dienal]
- Actimood score (subject's mood [1]; [4]): 3
- Actimood score (subject's mood [1]; [5]): 3
- IRT Score (subject's mood [2]; [7]): 2393

SMILES: CC(C)=CCCC(C)CCO (centres unmarked) [CITRONELLOL 950, 3,7-dimethyloct-6-en-1-ol]
- Actimood score (subject's mood [1]; [11]): 1

SMILES: O=c1ccc2ccccc2o1 [COUMARIN, chromen-2-one]
- Actimood score (subject's mood [1]; [3]): 3
- Actimood score (subject's mood [1]; [12]): 3
- IRT Score (subject's mood [2]; [8]): 1347

SMILES: CC(C=O)Cc1ccc(C(C)C)cc1 (centres unmarked) [CYCLAMEN ALDEHYDE, 3-(4-isopropylphenyl)-2-methyl-propanal]
- Actimood score (subject's mood [1]; [5]): 3
- IRT Score (subject's mood [2]; [7]): 1005

SMILES: C=CC(C)CCCC(C)(C)O (centres unmarked) [DIHYDRO MYRCENOL, 2,6-dimethyloct-7-en-2-ol]
- Actimood score (subject's mood [1]; [3]): 3
- Actimood score (subject's mood [1]; [4]): 3
- Actimood score (subject's mood [1]; [13]): 3
- IRT Score (subject's mood [2]; [8]): 1599

SMILES: CCCCCCCCC1CCC(=O)O1 (centres unmarked) [DODECALACTONE GAMMA 10% DPG, gamma-Dodecalactone]
- Actimood score (subject's mood [1]; [9]): 1

SMILES: O=C1CCCCCCCCCCCC(=O)OCCO1 [ETHYLENE BRASSYLATE, 1,4-dioxacycloheptadecane-5,17-dione]
- Actimood score (subject's mood [1]; [3]): 3
- Actimood score (subject's mood [1]; [9]): 2
- Actimood score (subject's mood [1]; [11]): 2
- Actimood score (subject's mood [1]; [13]): 3
- IRT Score (subject's mood [2]; [8]): 1177

SMILES: COC(=O)c1c(C)cc(O)c(C)c1O [EVERNYL 10% DPG, Methyl-2,4-dihydroxy-3,6-dimethyl-benzoate]
- Actimood score (subject's mood [1]; [9]): 1

SMILES: CCc1ccc(CC(C)(C)C=O)cc1 [FLORALOZONE, 3-(4-ethylphenyl)-2,2-dimethylpropanal]
- Actimood score (subject's mood [1]; [5]): 3

SMILES: COc1ccc(CCC(C)=O)cc1 [FRAMBINON ®, Methoxyphenylbutanone]
- Actimood score (subject's mood [1]; [6]): 3

SMILES: C=CCCCCOC(=O)C(C)CC (centres unmarked) [FRUCTATE ®, Hex-5-enyl 2-methylbutanoate]
- Actimood score (subject's mood [1]; [13]): 0

SMILES: CC1COCc2cc3c(cc21)C(C)(C)C(C)C3(C)C (centres unmarked) [GALAXOLIDE PURE, 4,6,6,7,8,8-hexamethyl-1,3,4,7-tetrahydrocyclopenta[G]isochromene]
- Actimood score (subject's mood [1]; [14]): 2
- Actimood score (subject's mood [1]; [12]): 3

SMILES: O=Cc1ccc2c(c1)OCO2 [HELIOTROPIN, 1,3-benzodioxole-5-carbaldehyde]
- Actimood score (subject's mood [1]; [10]): 2

SMILES: CCC(=O)OCC(C)(C)OC(C)C1CCCC(C)(C)C1 (centres unmarked) [HELVETOLIDE, [2-[1-(3,3-dimethylcyclohexyl)ethoxy]-2-methyl-propyl]propanoate]
- Actimood score (subject's mood [1]; [14]): 2
- Actimood score (subject's mood [1]; [9]): 3
- Actimood score (subject's mood [1]; [12]): 3
- Actimood score (subject's mood [1]; [11]): 2

SMILES: CC/C=C/CCO [HEXENOL CIS-3 10% DPG, Hexenol]
- Actimood score (subject's mood [1]; [10]): 0

SMILES: CC/C=C\CCOC(C)=O [HEXENYL ACETATE CIS-3 10% DPG, Hexenyl acetat]
- Actimood score (subject's mood [1]; [10]): 0

SMILES: CCCCCCOC(C)=O [HEXYL ACETATE, hexyl acetate]
- Actimood score (subject's mood [1]; [4]): 1
- Actimood score (subject's mood [1]; [6]): 2

SMILES: CC(CC=O)CCCC(C)(C)O (centres unmarked) [HYDROXY CITRONELLAL, 7-hydroxy-3,7-dimethyl-octanal]
- Actimood score (subject's mood [1]; [3]): 3
- Actimood score (subject's mood [1]; [11]): 1
- IRT Score (subject's mood [2]; [8]): 1283

SMILES: CC(=O)/C=C/C1C(C)=CCCC1(C)C (stereo not drawn) [IONONE ALPHA, (E)-4-(2,6,6-trimethylcyclohex-2-en-1-yl)but-3-en-2-one]
- Actimood score (subject's mood [1]; [12]): 3
- Actimood score (subject's mood [1]; [11]): 1

SMILES: CC(=O)/C=C/C1=C(C)CCCC1(C)C [IONONE BETA, (E)-4-(2,6,6-trimethylcyclohexen-1-yl)but-3-en-2-one]
- Actimood score (subject's mood [1]; [6]): 3
- Actimood score (subject's mood [1]; [10]): 3

SMILES: CC(=O)C1(C)CC2=C(CCCC2(C)C)CC1C (centres unmarked) [ISO E SUPER, 1-[2,3,8,8-tetramethyl-1,3,4,5,6,7-hexanhydronaphthalen-2-yl]ethanone]
- Actimood score (subject's mood [1]; [6]): 2
- Actimood score (subject's mood [1]; [13]): 2
- Actimood score (subject's mood [1]; [10]): 2

SMILES: CC/C=C\CCOC(=O)OC [LEAFOVERT ®, (Z)-Hex-3-en-1-yl methyl carbonate]
- Actimood score (subject's mood [1]; [6]): 3
- Actimood score (subject's mood [1]; [11]): 0
- Actimood score (subject's mood [1]; [10]): 2

SMILES: O=C1CCCCCCCCCCCCCCO1 [MACROLIDE ® SUPRA, Pentadecan-15-olide]
- Actimood score (subject's mood [1]; [3]): 3
- Actimood score (subject's mood [1]; [14]): 2
- Actimood score (subject's mood [1]; [12]): 3
- Actimood score (subject's mood [1]; [10]): 2
- IRT Score (subject's mood [2]; [8]): 1944

SMILES: Cc1cccc(CC(C)(C)CO)c1 [MAJANTOL ®, beta,beta-3-Trimethyl-benzenepropanol]
- Actimood score (subject's mood [1]; [11]): 2
- Actimood score (subject's mood [1]; [13]): 2

SMILES: CCCC(C)C(=O)OCC (centres unmarked) [MANZANATE, ethyl-2-methylpentanoate]
- Actimood score (subject's mood [1]; [6]): 3

SMILES: COC(=O)c1ccccc1N [METHYL ANTHRANILATE, Methyl anthranilate]
- Actimood score (subject's mood [1]; [11]): 0

SMILES: CC(=O)OC1CCC(C(C)(C)C)CC1 (centres unmarked) [ORYCLON HC, (4-tert-butylcyclohexyl) acetate]
- Actimood score (subject's mood [1]; [9]): 1

SMILES: OCCc1ccccc1 [PHENYLETHYL ALCOHOL BA FREE, 2-phenylethanol]
- Actimood score (subject's mood [1]; [9]): 2
- Actimood score (subject's mood [1]; [11]): 1

SMILES: CC(C)CCC1CCC(O)CC1 (centres unmarked) [SYMROSE ®, 4-Isopentylcyclohexanol]
- Actimood score (subject's mood [1]; [9]): 2

SMILES: CC(=O)C1CC/C(C)=C/CC/C(C)=C/C/C=C/1C (centres unmarked) [TRIMOFIX O, 1-[(2E,5E,9E)-2,6,10-trimethylcyclododeca-2,5,9-trien-1-yl]ethanone]
- Actimood score (subject's mood [1]; [14]): 2

SMILES: CC1=CC(C)C(C=O)CC1 (centres unmarked) [VERTOCITRAL, 2,4-Dimethylcyclohex-3-ene-1-carbaldehyde]
- Actimood score (subject's mood [1]; [4]): 1
- Actimood score (subject's mood [1]; [10]): 0
